Test [1] addresses T1, human CD73 (Homo sapiens, UniProt P21589).
T1 construct: expressed in transfected cells
T1 sequence (P21589 27-549): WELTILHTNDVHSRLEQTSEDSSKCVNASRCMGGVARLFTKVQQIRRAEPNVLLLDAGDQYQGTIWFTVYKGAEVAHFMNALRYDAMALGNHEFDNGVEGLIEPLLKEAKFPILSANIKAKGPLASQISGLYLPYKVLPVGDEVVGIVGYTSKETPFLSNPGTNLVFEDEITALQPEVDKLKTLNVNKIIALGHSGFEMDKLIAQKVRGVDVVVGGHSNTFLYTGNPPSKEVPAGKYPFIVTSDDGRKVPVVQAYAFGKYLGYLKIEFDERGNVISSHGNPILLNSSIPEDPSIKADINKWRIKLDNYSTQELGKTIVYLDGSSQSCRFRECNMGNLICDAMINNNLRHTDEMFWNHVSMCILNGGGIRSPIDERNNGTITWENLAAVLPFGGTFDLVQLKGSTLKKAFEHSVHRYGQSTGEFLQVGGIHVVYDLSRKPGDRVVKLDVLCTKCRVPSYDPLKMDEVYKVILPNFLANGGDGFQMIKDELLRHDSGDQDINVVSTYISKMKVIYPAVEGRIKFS
In words: Inhibitor activity against CD73 in cell based assay (CD73 expressing CHO-K1 cells). The settings on record: CHO-K1 cells expressing human CD73, 150 μM AMP, 4 hours of incubation; read-out: CHO-K1 CELL VARIANT: CD73 IC50. The method in brief:
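Stably transfected CHO-K1 cells expressing human CD73 (1×10^4/well) incubated 4 h with compound (8-point 1:3 titration, top 10 μM final, 0.2% DMSO) and 150 μM AMP. Residual AMP in supernatant measured by CellTiter-Glo luminescence with 1 μM ATP after 30 min at room temperature; IC50 by nonlinear regression of percent inhibition vs high/low controls.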

Test [2] addresses T2, Human CD73 (amino acid residues 27-549) (Homo sapiens, UniProt P21589).
T2 construct: Human CD73 (amino acid residues 27-549); His tag (N); made in house; host or cells: E. coli
T2 sequence (P21589 27-549): T1 sequence (P21589 27-549)
In words: CD73 enzymatic assay (luciferase-based indirect assay, CellTiter-Glo). The class given is biochemical. The settings on record: 0.4 nM CD73, 150 μM AMP, 1 hour at room temperature. The method in brief: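 His-tagged human CD73 (27-549) from E. coli, 0.4 nM, with 150 μM AMP in 50 mM HEPES pH 7.4, 0.01% Tween 20; 1 h at room temperature. AMP remaining read by CellTiter-Glo 2.0 luminescence with 1 μM final ATP after 30 min. IC50 from nonlinear regression of % inhibition.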

By IC50 is commonly meant the concentration that inhibits the measured activity by half.

Molecules are shown by their SMILES.

For `O=C(N[C@H]1CC[C@H](NC(=O)C2CCCC2)CC1)O[C@@H]1CCN(c2cn[nH]c(=O)c2Cl)C1` [P-0259, (R)-1-(5-chloro-6-oxo-1,6-dihydropyridazin-4-yl)pyrrolidin-3-yl ((1r,4R)-4-(cyclopentanecarboxamido)cyclohexyl)carbamate], the IC50 in test [1] and in test [2] was 0.001 to 10 µM throughout.
Consider `O=C(N[C@H]1CC[C@H](NC(=O)c2ccccn2)CC1)O[C@@H]1CCN(c2cn[nH]c(=O)c2Cl)C1` [P-0260, (R)-1-(5-chloro-6-oxo-1,6-dihydropyridazin-4-yl)pyrrolidin-3-yl ((1r,4R)-4-(picolinamido)cyclohexyl) carbamate], for which the IC50 in test [1] and in test [2] was 0.001 to 10 µM each time.
For the molecule `N#Cc1ccc(C(=O)N[C@H]2CC[C@H](NC(=O)O[C@@H]3CCN(c4cn[nH]c(=O)c4Cl)C3)CC2)cc1` [P-0261, (R)-1-(5-chloro-6-oxo-1,6-dihydropyridazin-4-yl)pyrrolidin-3-yl ((1r,4R)-4-(4-cyanobenzamido)cyclohexyl) carbamate], the IC50 in test [1] and in test [2] was 0.001 to 10 µM each time.
Turning to `CC(C)(C)C(=O)N[C@H]1CC[C@H](NC(=O)O[C@@H]2CCN(c3cn[nH]c(=O)c3Cl)C2)CC1` [P-0262, (R)-1-(5-chloro-6-oxo-1,6-dihydropyridazin-4-yl)pyrrolidin-3-yl ((1r,4R)-4-pivalamidocyclohexyl) carbamate], the IC50 in test [1] and in test [2] was 0.001 to 10 µM in each case.
Take `CC(C)C(=O)N[C@H]1CC[C@H](NC(=O)O[C@@H]2CCN(c3cn[nH]c(=O)c3Cl)C2)CC1` [P-0263]: the figures for the half-inhibitory concentration (IC50) in test [1] and in test [2] were 10 to 100 µM and 0.001 to 10 µM, respectively.
`O=C(N[C@H]1CC[C@H](NC(=O)c2ccncc2)CC1)O[C@@H]1CCN(c2cn[nH]c(=O)c2Cl)C1` [P-0264, (R)-1-(5-chloro-6-oxo-1,6-dihydropyridazin-4-yl)pyrrolidin-3-yl ((1r,4R)-4-(isonicotinamido)cyclohexyl) carbamate]: the IC50 in test [1] and in test [2] was 0.001 to 10 µM each time.
Consider `O=C(N[C@H]1CC[C@H](NC(=O)c2ccc(Cl)cc2)CC1)O[C@@H]1CCN(c2cn[nH]c(=O)c2Cl)C1` [P-0265, (R)-1-(5-chloro-6-oxo-1,6-dihydropyridazin-4-yl)pyrrolidin-3-yl ((1r,4R)-4-(4-chlorobenzamido)cyclohexyl) carbamate], for which the half-maximal inhibitory concentration (IC50) in test [1] and in test [2] was 0.001 to 10 µM in each case.
As to `O=C(N[C@H]1CC[C@H](NC(=O)c2ccccc2Cl)CC1)O[C@@H]1CCN(c2cn[nH]c(=O)c2Cl)C1` [P-0266, (R)-1-(5-chloro-6-oxo-1,6-dihydropyridazin-4-yl)pyrrolidin-3-yl ((1r,4R)-4-(2-chlorobenzamido)cyclohexyl) carbamate], the IC50 in test [1] and in test [2] was 0.001 to 10 µM throughout.
On to `O=C(N[C@H]1CC[C@H](NC(=O)c2c(F)cccc2F)CC1)O[C@@H]1CCN(c2cn[nH]c(=O)c2Cl)C1` [P-0267, (R)-1-(5-chloro-6-oxo-1,6-dihydropyridazin-4-yl)pyrrolidin-3-yl ((1r,4R)-4-(2,6-difluorobenzamido)cyclohexyl) carbamate], for which the half-inhibitory concentration (IC50) in test [1] and in test [2] was 0.001 to 10 µM throughout.
On to `Cc1cccc(F)c1C(=O)N[C@H]1CC[C@H](NC(=O)O[C@@H]2CCN(c3cn[nH]c(=O)c3Cl)C2)CC1` [P-0268, (R)-1-(5-chloro-6-oxo-1,6-dihydropyridazin-4-yl)pyrrolidin-3-yl ((1r,4R)-4-(2-fluoro-6-methylbenzamido)cyclohexyl) carbamate], for which the IC50 in test [1] and in test [2] was 0.001 to 10 µM throughout.
Consider `CCN(CC)CC(=O)N[C@H]1CC[C@H](NC(=O)O[C@@H]2CCN(c3cn[nH]c(=O)c3Cl)C2)CC1` [P-0269, (R)-1-(5-chloro-6-oxo-1,6-dihydropyridazin-4-yl)pyrrolidin-3-yl ((1r,4R)-4-(2-(diethylamino)acetamido)cyclohexyl)carbamate], for which the IC50 in test [1] and in test [2] was 0.001 to 10 µM in each case.
Take `O=C(CN1CCOCC1)N[C@H]1CC[C@H](NC(=O)O[C@@H]2CCN(c3cn[nH]c(=O)c3Cl)C2)CC1` [P-0270, (R)-1-(5-chloro-6-oxo-1,6-dihydropyridazin-4-yl)pyrrolidin-3-yl ((1r,4R)-4-(2-morpholinoacetamido)cyclohexyl)carbamate]: the IC50 in test [1] and in test [2] was 0.001 to 10 µM in each case.
As for `O=C(NC1CC1)N[C@H]1CC[C@H](NC(=O)O[C@@H]2CCN(c3cn[nH]c(=O)c3Cl)C2)CC1` [P-0271, (R)-1-(5-chloro-6-oxo-1,6-dihydropyridazin-4-yl)pyrrolidin-3-yl ((1r,4R)-4-(3-cyclopropylureido)cyclohexyl) carbamate], the IC50 in test [1] and in test [2] was 0.001 to 10 µM throughout.
On to `O=C(Nc1ccc(Cl)cc1)N[C@H]1CC[C@H](NC(=O)O[C@@H]2CCN(c3cn[nH]c(=O)c3Cl)C2)CC1` [P-0272, (R)-1-(5-chloro-6-oxo-1,6-dihydropyridazin-4-yl)pyrrolidin-3-yl ((1r,4R)-4-(3-(4-chlorophenyl)ureido)cyclohexyl)carbamate], for which the IC50 in test [1] and in test [2] was 0.001 to 10 µM in each case.
In the case of `C[C@]1(O)CC[C@@H](NC(=O)O[C@@H]2CCN(c3cn[nH]c(=O)c3Cl)C2)CC1` [P-0273, (R)-1-(5-chloro-6-oxo-1,6-dihydropyridazin-4-yl)pyrrolidin-3-yl ((1s,4S)-4-hydroxy-4-methylcyclohexyl)carbamate], the IC50 in test [1] and in test [2] was 0.001 to 10 µM each time.
Take `O=C(N[C@H]1CC[C@@H](O)CC1)O[C@@H]1CCN(c2cn[nH]c(=O)c2Cl)C1` [P-0274, (R)-1-(5-chloro-6-oxo-1,6-dihydropyridazin-4-yl)pyrrolidin-3-yl ((1s,4S)-4-hydroxycyclohexyl)carbamate]: the 50% inhibitory concentration (IC50) in test [1] and in test [2] was 0.001 to 10 µM each time.
With `N#C[C@H]1CC[C@H](NC(=O)O[C@@H]2CCN(c3cn[nH]c(=O)c3Cl)C2)CC1` [P-0275, (R)-1-(5-chloro-6-oxo-1,6-dihydropyridazin-4-yl)pyrrolidin-3-yl ((1r,4R)-4-cyanocyclohexyl)carbamate], the IC50 in test [1] and in test [2] was 0.001 to 10 µM throughout.
On to `O=C(NC1CCC2(CC1)CC2)O[C@@H]1CCN(c2cn[nH]c(=O)c2Cl)C1` [P-0276, (R)-1-(5-chloro-6-oxo-1,6-dihydropyridazin-4-yl)pyrrolidin-3-yl spiro[2.5]octan-6-ylcarbamate], for which the half-inhibitory concentration (IC50) in test [1] and in test [2] was 0.001 to 10 µM in each case.
`O=C(N[C@H]1CC[C@H](F)CC1)O[C@@H]1CCN(c2cn[nH]c(=O)c2Cl)C1` [P-0277, (R)-1-(5-chloro-6-oxo-1,6-dihydropyridazin-4-yl)pyrrolidin-3-yl ((1r,4R)-4-fluorocyclohexyl)carbamate]: the IC50 in test [1] and in test [2] was 0.001 to 10 µM each time.
Take `CC1(C)CCCC(NC(=O)O[C@@H]2CCN(c3cn[nH]c(=O)c3Cl)C2)C1` (stereo partly drawn) [P-0278, (R)-1-(5-chloro-6-oxo-1,6-dihydropyridazin-4-yl)pyrrolidin-3-yl (3,3-dimethylcyclohexyl)carbamate]: the concentration for half-maximal inhibition (IC50) in test [1] and in test [2] was 0.001 to 10 µM throughout.
In the case of `C[C@H]1CCCC[C@H]1NC(=O)O[C@@H]1CCN(c2cn[nH]c(=O)c2Cl)C1` [P-0279, (R)-1-(5-chloro-6-oxo-1,6-dihydropyridazin-4-yl)pyrrolidin-3-yl ((1R,2S)-2-methylcyclohexyl)carbamate], the concentration for half-maximal inhibition (IC50) in test [1] and in test [2] was 0.001 to 10 µM throughout.
Consider `O=C1CC(NC(=O)O[C@@H]2CCN(c3cn[nH]c(=O)c3Cl)C2)CCN1` (stereo partly drawn) [P-0280, (R)-1-(5-chloro-6-oxo-1,6-dihydropyridazin-4-yl)pyrrolidin-3-yl (2-oxopiperidin-4-yl)carbamate], for which the IC50 in test [1] and in test [2] was 0.001 to 10 µM throughout.
For the molecule `CN1CCC(NC(=O)O[C@@H]2CCN(c3cn[nH]c(=O)c3Cl)C2)CC1=O` (stereo partly drawn) [P-0281, (R)-1-(5-chloro-6-oxo-1,6-dihydropyridazin-4-yl)pyrrolidin-3-yl (1-methyl-2-oxopiperidin-4-yl)carbamate], the IC50 in test [1] and in test [2] was 0.001 to 10 µM throughout.
With `O=C(O)Cn1ncc(N2CC[C@@H](OC(=O)NC3CCC(F)(F)CC3)C2)c(Cl)c1=O` [P-0282, (R)-2-(5-chloro-4-(3-(((4,4-difluorocyclohexyl)carbamoyl)oxy)pyrrolidin-1-yl)-6-oxopyridazin-1(6H)-yl)acetic acid], the results for the half-inhibitory concentration (IC50) in test [1] and in test [2] were 10 to 100 µM and 0.001 to 10 µM, respectively.

The values are drawn from US12509444B2, “Compounds and methods for CD73 modulation and indications therefor” (Plexxikon Inc., priority 2019, dated 2025).
